# Data as given in PMC10485003, “Antibiotic hyper-resistance in a class I aminoacyl-tRNA synthetase with altered active site signature motif” (Nature Communications, 2023).
# Assays:
# P53A/G60N/R61K PmIleRS2 = target: T1, P53A/G60N/R61K PmIleRS2 (Priestia megaterium, UniProt A0A0B6AVD3, G60N/P53A/R61K); assay: Activation step kinetics of reciprocal-residue mutants, mupirocin inhibition; type: biochemical, Priestia (Bacillus) megaterium; conditions: peer review response Table 1, read-out: Ki (Mup)
# T1 sequence (A0A0B6AVD3 1-1032 P53A/G60N/R61K): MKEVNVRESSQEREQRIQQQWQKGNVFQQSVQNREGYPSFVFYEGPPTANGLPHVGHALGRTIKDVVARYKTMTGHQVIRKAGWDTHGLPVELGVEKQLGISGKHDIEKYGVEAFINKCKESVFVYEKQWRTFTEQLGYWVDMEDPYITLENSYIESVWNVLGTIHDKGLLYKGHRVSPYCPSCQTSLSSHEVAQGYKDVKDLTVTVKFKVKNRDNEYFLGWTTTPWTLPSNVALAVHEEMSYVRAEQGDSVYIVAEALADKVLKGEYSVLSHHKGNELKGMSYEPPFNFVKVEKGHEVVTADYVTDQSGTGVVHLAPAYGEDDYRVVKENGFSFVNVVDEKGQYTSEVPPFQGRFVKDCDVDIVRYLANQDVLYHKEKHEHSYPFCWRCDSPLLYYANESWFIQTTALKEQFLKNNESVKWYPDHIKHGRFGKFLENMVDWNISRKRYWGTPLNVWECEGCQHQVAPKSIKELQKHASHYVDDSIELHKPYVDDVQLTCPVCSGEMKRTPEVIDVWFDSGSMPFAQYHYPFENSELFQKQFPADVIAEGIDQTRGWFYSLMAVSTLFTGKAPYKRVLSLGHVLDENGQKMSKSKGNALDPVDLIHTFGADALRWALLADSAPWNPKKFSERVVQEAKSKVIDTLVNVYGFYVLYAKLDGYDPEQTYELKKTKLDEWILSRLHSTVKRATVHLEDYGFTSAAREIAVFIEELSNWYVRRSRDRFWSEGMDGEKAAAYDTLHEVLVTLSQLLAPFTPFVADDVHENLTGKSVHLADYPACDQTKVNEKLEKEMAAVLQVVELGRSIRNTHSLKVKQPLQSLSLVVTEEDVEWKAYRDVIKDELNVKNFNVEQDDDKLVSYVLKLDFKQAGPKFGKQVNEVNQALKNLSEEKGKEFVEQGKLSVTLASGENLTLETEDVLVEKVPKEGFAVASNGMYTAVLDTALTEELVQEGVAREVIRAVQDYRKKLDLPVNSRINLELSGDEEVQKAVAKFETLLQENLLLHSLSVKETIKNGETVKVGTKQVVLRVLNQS
# Method: (§1) L-Ile and ATP concentrations ranged from 1/10 KM to 10 KM values. When measuring the KI towards one of the substrates, the other was held in saturation (concentrations at least 10 KM). The aliquots of the reaction mixture (1–2.5 μl) were quenched in 2 volumes of 500 mM NaOAc pH = 4.5, 0.1% SDS, and formed ^32P-ATP was separated from the remaining ^32P-PPi by thin-layer chromatography on Polygram CEL 300 PEI UV254 TLC plates (Macherey-Nagel, cat: 801063) using 750 mM KH2PO4 pH=3.5, 4 M urea buffer. Visualization and quantification of the signals was performed using a Typhoon Phosphoimager 5 (General Electric) and accompanying ImageQuant™ TL software (SV: 10.2). The kinetic constants were determined using a global fit option of the competitive inhibition model of GraphPad Prism 6 software (SV: 6.01). All experiments were performed in triplicates. The kcat was determined by dividing the maximal velocity, VM, with the used enzyme concentration. […]
# (§2) same catalytic mechanisms. Further, mutation of the natural ALHH motif of DrIleRS2 to ALGH led to the loss of activity, showing that IleRS2 enzymes also require the 1st/3rd His for the activity (i.e. implying the same reaction mechanisms).
# (§3) To address this point, we changed the sentence “This allows accommodation of the 3rd His in mut-GVHH-PmIleRS2 in a productive manner without a clash with the adenine […]
# (§4) This allows accommodation of the 3 rd His in mut-GVHH-PmIleRS2 without displacement of the adenine moiety. This way, the 3rd His can take over the role of the 1 st His in the canonical reaction mechanism (Fig. 4B). (Page 9, lines 216-218)
# (§5) We agree with the reviewer that the active sites of IleRS1 and IleRS2 differ in structural features allowing rearrangement of the α1-helix solely in IleRS2. We were eager t o understand the basis of it and mutated several conserved positions, within and around helix 1, in IleRS1 by introducing the analogous residues found in IleRS2. The same was done for IleRS2. […]
# (§6) Table 1. Catalytic activity of the IleRS1 and IleRS2 mutants with exchanged reciprocal residues measured in the activation step […]
# [1] = target: T2, P53A/G60N/R61K/W130Q/Y126S PmIleRS2 (Priestia megaterium, UniProt A0A0B6AVD3, G60N/P53A/R61K/W130Q/Y126S); assay: as above; type: biochemical, Priestia (Bacillus) megaterium; conditions: peer review response Table 1, read-out: Ki (Mup)
# T2 sequence (A0A0B6AVD3 1-1032 P53A/G60N/R61K/Y126S/W130Q): T1 sequence (A0A0B6AVD3 1-1032 P53A/G60N/R61K)
# Method: as §1, §2, §3, §4, §5, §6
# W130Q/Y126S PmIleRS2 = target: T3, W130Q/Y126S PmIleRS2 (Priestia megaterium, UniProt A0A0B6AVD3, W130Q/Y126S); assay: as above; type: biochemical, Priestia (Bacillus) megaterium; conditions: peer review response Table 1, read-out: Ki (Mup)
# T3 sequence (A0A0B6AVD3 1-1032 Y126S/W130Q): T1 sequence (A0A0B6AVD3 1-1032 P53A/G60N/R61K)
# Method: as §1, §2, §3, §4, §5, §6
# IleRS2 = assay: Mupirocin inhibition of IleRS2 compared with IleRS1; type: biochemical, bacteria; conditions: IleRS1 strongly, IleRS2 modestly inhibited
# wt-HMGH PmIleRS1 = conditions: amino acid activation step; ATP/PPi exchange assay; Ile varied; slow tight binding inhibitor; read-out: KI (MUP)Ile; cited from earlier work
# ScIleRS2 = conditions: aminoacylation, with tRNA; cited from earlier work
compound,measurement,setting,value
C/C(=C\C(=O)OCCCCCCCCC(=O)O)C[C@@H]1OC[C@H](C[C@@H]2O[C@H]2[C@@H](C)[C@H](C)O)[C@@H](O)[C@H]1O [mupirocin],Ki,P53A/G60N/R61K PmIleRS2,3.1 ± 0.2 µM
same,Ki,[1],21.1 ± 0.7 µM
same,Ki,W130Q/Y126S PmIleRS2,3.2 ± 0.1 µM
same,difference in Ki between IleRS1 and IleRS2,IleRS2,10^3−10^5 fold
same,Ki,wt-HMGH PmIleRS1,0.00029 ± 2e-05 µM
same,Ki,ScIleRS2,15 µM
